# US20230348475A1, “IMIDAZOPYRIDAZINE AND IMIDAZOPYRAZINE COMPOUNDS AS INHIBITORS OF CDK7” (THE TRANSLATIONAL GENOMICS RESEARCH INSTITUTE, priority 2020, published 2023)
# Counter-ions that a name gives are not always drawn.
# Target: CDK7/CycH/MAT1 (Homo sapiens, UniProt P50613)
# Test: Kinase Glo (ADP-Glo) biochemical assay, CDK7
# Conditions: CDK7/CycH/MAT1 40 ng, ATP 1 μM, 60 minutes at RT, luminescence
# Method: Materials: • Assay Buffer: 50 mM HEPES, 3 mM MgCl2, 3 mM MnCl2, 1 mM DTT, 3 μM Na3VO4, pH 7.5 • Substrate RB • CTF Peptide (ProQinase #: 0040-0000-6) • Enzymes • CDK7/CycH/MAT1 (ProQinase #: 0366-0360-4) • ADP-Glo™ Assay (Promega #: V9101) • ATP: 10 mM • ADP-Glo™ Reagent • Kinase Detection Reagent • 384-well white assay plates
# A ten point serial dilution of compound was prepared at 5X concentration in assay buffer with the final assay concentrations starting at 30 μM, 10 μM, 3 μM, 1 μM . . . 0 μM. Enzyme, substrate, and ATP were used at 40 ng, 200 ng (or 400 ng)* and 1 μM, respectively. The assay plate was set up by mixing the components in a total reaction volume of 10 μL per well. The plate was centrifuged gently for 10 seconds and incubated at room temperature (RT) for 60 minutes in the dark. The ADP-Glo Reagent and kinase detection reagent were added and incubated as recommended. The reaction was quantified by measuring luminescence on the Perkin Elmer Envision plate reader.
# Chain of CDK7/CycH/MAT1 (P50613 whole entry): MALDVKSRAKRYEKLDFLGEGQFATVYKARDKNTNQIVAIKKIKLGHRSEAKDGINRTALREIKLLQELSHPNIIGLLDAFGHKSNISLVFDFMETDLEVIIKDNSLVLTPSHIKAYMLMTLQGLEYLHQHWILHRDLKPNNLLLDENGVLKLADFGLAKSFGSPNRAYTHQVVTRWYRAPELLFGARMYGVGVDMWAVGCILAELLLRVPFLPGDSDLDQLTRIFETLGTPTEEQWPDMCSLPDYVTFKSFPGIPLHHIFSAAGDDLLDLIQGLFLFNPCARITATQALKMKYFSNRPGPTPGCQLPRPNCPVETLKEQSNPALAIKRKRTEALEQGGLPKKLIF
# Chain of CDK7/CycH/MAT1 (P51946 whole entry partner): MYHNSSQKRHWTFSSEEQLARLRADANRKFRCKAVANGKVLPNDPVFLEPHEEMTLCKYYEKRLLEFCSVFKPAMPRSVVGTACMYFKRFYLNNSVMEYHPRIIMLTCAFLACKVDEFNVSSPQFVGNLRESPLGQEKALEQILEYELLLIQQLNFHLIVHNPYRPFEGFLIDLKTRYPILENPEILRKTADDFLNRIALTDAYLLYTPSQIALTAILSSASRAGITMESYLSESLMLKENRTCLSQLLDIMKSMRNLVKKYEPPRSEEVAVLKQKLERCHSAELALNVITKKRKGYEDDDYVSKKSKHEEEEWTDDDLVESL
# Chain of CDK7/CycH/MAT1 (P51948 whole entry partner): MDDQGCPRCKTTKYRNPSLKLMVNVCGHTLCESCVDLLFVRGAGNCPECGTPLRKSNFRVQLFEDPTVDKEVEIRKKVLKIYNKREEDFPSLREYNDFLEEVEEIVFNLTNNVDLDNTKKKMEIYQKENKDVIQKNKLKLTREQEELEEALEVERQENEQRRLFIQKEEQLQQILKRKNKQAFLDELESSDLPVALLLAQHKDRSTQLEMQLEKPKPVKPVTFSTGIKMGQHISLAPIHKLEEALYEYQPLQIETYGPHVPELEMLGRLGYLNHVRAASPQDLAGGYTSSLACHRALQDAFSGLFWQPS
row,IC50 [nM],Compound
1,100 to 1000,"CC(C)c1cnc2c(Nc3cccc(OC(F)(F)F)c3)cc(SC3CCCNC3)nn12 (stereo not drawn) [Compound 58, 3-isopropyl-6-(piperidin-3-ylthio)-N-(3-(trifluoromethoxy)phenyl)imidazo[1,2-b]pyridazin-8-amine hydrochloride]"
2,100 to 1000,"COc1cc(F)ccc1CNc1cc(SC2CCCNC2)nn2c(C(C)C)cnc12 (stereo not drawn) [Compound 79, N-(4-fluoro-2-methoxybenzyl)-3-isopropyl-6-(piperidin-3-ylthio)imidazo[1,2-b]pyridazin-8-amine formate]"
3,100 to 1000,"CN1CCC[C@H](Oc2cc(NCc3ccccc3)c3ncc(C4CC4)n3n2)C1 [Compound 11, (S)—N-benzyl-3-cyclopropyl-6-((1-methylpiperidin-3-yl)oxy)imidazo[1,2-b]pyridazin-8-amine]"
4,100 to 1000,"CC(C)c1cnc2c(NCc3ccc(F)cc3C(F)(F)F)cc(SC3CCNCC3)nn12 [Compound 80, N-(4-fluoro-2-(trifluoromethyl)benzyl)-3-isopropyl-6-(piperidin-4-ylthio)imidazo[1,2-b]pyridazin-8-amine hydrochloride]"
5,100 to 1000,"CC(C)c1cnc2c(N[C@@H](C)c3ccccc3)cc(NC3CCNCC3)nn12 [Compound 29, (S)-3-isopropyl-N8-(1-phenylethyl)-N6-(piperidin-4-yl)imidazo[1,2-b]pyridazine-6,8-diamine hydrochloride]"
6,100 to 1000,"CN1CCC[C@@H](Oc2cc(NCc3ccccc3)c3ncc(C4CC4)n3n2)C1 [Compound 9, (R)—N-benzyl-3-cyclopropyl-6-((1-methylpiperidin-3-yl)oxy)imidazo[1,2-b]pyridazin-8-amine]"
7,100 to 1000,"CC(C)c1cnc2c(NCc3ccc(F)cc3C(F)(F)F)cc(SC3CCCNC3)nn12 (stereo not drawn) [Compound 81, N-(4-fluoro-2-(trifluoromethyl)benzyl)-3-isopropyl-6-(piperidin-3-ylthio)imidazo[1,2-b]pyridazin-8-amine hydrochloride]"
8,100 to 1000,"CN1CCC(Oc2cc(Nc3cccc(F)c3)c3ncc(C4CC4)n3n2)CC1 [Compound 2, 3-cyclopropyl-N-(3-fluorophenyl)-6-((1-methylpiperidin-4-yl)oxy)imidazo[1,2-b]pyridazin-8-amine]"
9,100 to 1000,"CN1CCC(Oc2cc(NCc3ccccc3)c3ncc(C4CC4)n3n2)CC1 [Compound 15, N-benzyl-3-cyclopropyl-6-((1-methylpiperidin-4-yl)oxy)imidazo [1,2-b] pyridazin-8-amine]"
10,100 to 1000,"CC(C)c1cnc2c(N[C@@H](C)c3ccccc3)cc(OC3CCNCC3)nn12 [Compound 27, hydrochloride]"
11,< 100,"COc1cc(F)ccc1CNc1cc(SC2CCNCC2)nn2c(C(C)C)cnc12 [Compound 72, N-(4-fluoro-2-methoxybenzyl)-3-isopropyl-6-(piperidin-4-ylthio)imidazo[1,2-b]pyridazin-8-amine hydrochloride]"
12,100 to 1000,"CC(C)c1cnc2c(Nc3ccccc3C(F)(F)F)cc(SC3CCCNC3)nn12 (stereo not drawn) [Compound 61, 3-isopropyl-6-(piperidin-3-ylthio)-N-(2-(trifluoromethyl)phenyl) imidazo[1,2-b]pyridazin-8-amine hydrochloride]"
13,100 to 1000,CC(C)c1cnc2c(NCc3ccccc3)cc(NC[C@H]3CCCNC3)nn12 [Compound I-4]
14,100 to 1000,"CN1CCC[C@H](Nc2cc(NCc3ccccc3)c3ncc(C4CC4)n3n2)C1 [Compound 16, (S)-N8-benzyl-3-cyclopropyl-N6-(1-methylpiperidin-3-yl)imidazo[1,2-b]pyridazine-6,8-diamine]"
15,100 to 1000,"COc1ccccc1CNc1cc(SC2CCNCC2(F)F)nn2c(C(C)C)cnc12 (stereo not drawn) [Compound 75, 6-((3,3-difluoropiperidin-4-yl)thio)-3-isopropyl-N-(2-methoxybenzyl)imidazo[1,2-b]pyridazin-8-amine hydrochloride]"
16,100 to 1000,"CC(C)c1cnc2c(NCc3ccccc3OC(F)(F)F)cc(SC3CCNCC3F)nn12 (stereo not drawn) [Compound 74, 6-((3-fluoropiperidin-4-yl)thio)-3-isopropyl-N-(2-(trifluoromethoxy)benzyl)imidazo[1,2-b]pyridazin-8-amine hydrochloride]"
17,> 1000,"O=C(N1CCC(Sc2cc(NCc3ccccc3)c3ncc(C4CC4)n3n2)CC1)C(F)(F)F [Compound 20, 1-(4-((8-(benzylamino)-3-cyclopropylimidazo[1,2-b]pyridazin-6-yl)thio)piperidin-1-yl)-2,2,2-trifluoroethan-1-one]"
18,100 to 1000,"c1ccc(CNc2cc(NCCC3CNCCO3)nn3c(C4CC4)cnc23)cc1 (stereo not drawn) [Compound 19, N8-benzyl-3-cyclopropyl-N6-(2-(morpholin-2-yl)ethyl)imidazo[1,2-b]pyridazine-6,8-diamine formate]"

row,IC50 [nM],Compound
1,< 100,"c1ccc(CNc2cc(SC3CCNCC3)nn3c(C4CC4)cnc23)cc1 [Compound 18, N-benzyl-3-cyclopropyl-6-(piperidin-4-ylthio)imidazo[1,2-b]pyridazin-8-amine hydrochloride]"
2,100 to 1000,"CC(C)c1cnc2c(NCc3ccccc3OC(F)(F)F)cc(OC[C@H]3CNCCO3)nn12 [Compound 47, (R)-3-isopropyl-6-(morpholin-2-ylmethoxy)-N-(2-(trifluoromethoxy)benzyl)imidazo[1,2-b]pyridazin-8-amine hydrochloride]"
3,100 to 1000,"CC(C)c1cnc2c(NCc3ccccc3OC(F)(F)F)cc(SC3CCNCC3(F)F)nn12 (stereo not drawn) [Compound 76, 6-((3,3-difluoropiperidin-4-yl)thio)-3-)isopropyl-N-(2-(trifluoromethoxy)benzyl)imidazo[1,2-b]pyridazin-8-amine hydrochloride]"
4,< 100,"CC(C)c1cnc2c(N[C@@H](C)c3ccccc3)cc(SC3CCCNC3)nn12 (stereo partly drawn) [Compound 28, 3-isopropyl-N-((S)-1-phenylethyl)-6-(piperidin-3-ylthio) imidazo [1,2-b]pyridazin-8-amine hydrochloride]"
5,100 to 1000,"CC(C)c1cnc2c(Nc3cccc(C(F)(F)F)c3)cc(SC3CCCNC3)nn12 (stereo not drawn) [Compound 57, 3-isopropyl-6-(piperidin-3-ylthio)-N-(3-(trifluoromethyl)phenyl)imidazo[1,2-b]pyridazin-8-amine hydrochloride]"
6,100 to 1000,"c1ccc(CNc2cc(OC3CCNCC3)nn3c(C4CC4)cnc23)cc1 [Compound 14, N-benzyl-3-cyclopropyl-6-(piperidin-4-yloxy)imidazo[1,2-b]pyridazin-8-amine]"
7,100 to 1000,"CN1CC[C@H](Oc2cc(Nc3cccc(F)c3)c3ncc(C4CC4)n3n2)C1 [Compound 5, (S)-3-cyclopropyl-N-(3-fluorophenyl)-6-((1-methylpyrrolidin-3-yl)oxy)imidazo[1,2-b]pyridazin-8-amine]"
8,100 to 1000,"CC(C)c1cnc2c(Nc3ccccc3OC(F)(F)F)cc(SC3CCCNC3)nn12 (stereo not drawn) [Compound 60, 3-isopropyl-6-(piperidin-3-ylthio)-N-(2-(trifluoromethoxy)phenyl)imidazo[1,2-b]pyridazin-8-amine hydrochloride]"
9,< 100,"CC(C)c1cnc2c(Nc3c(F)cccc3F)cc(SC3CCCNC3)nn12 (stereo not drawn) [Compound 59, N-(2,6-difluorophenyl)-3-isopropyl-6-(piperidin-3-ylthio)imidazo[1,2-b]pyridazin-8-amine hydrochloride]"
10,100 to 1000,COc1ccccc1CNc1cc(OC2CCN(C)CC2)nn2c(C3CC3)cnc12 [Compound I-2]
11,< 100,CC(C)c1cnc2c(NCc3ccccc3)cc(NC[C@H]3CCNC[C@@H]3O)nn12 [Compound I-3]
12,100 to 1000,"c1ccc(CNc2nc(SC3CCNCC3)cn3c(C4CC4)cnc23)cc1 [Compound 21, N-benzyl-3-cyclopropyl-6-(piperidin-4-ylthio)imidazo[1,2-α]pyrazin-8-amine formate salt]"
13,100 to 1000,"CN1CC[C@H](Oc2cc(NCc3ccccc3)c3ncc(C4CC4)n3n2)C1 [Compound 8, (S)—N-benzyl-3-cyclopropyl-6-((1-methylpyrrolidin-3-yl)oxy)imidazo[1,2-b]pyridazin-8-amine]"
14,100 to 1000,"CC(C)c1cnc2c(Nc3cccc(F)c3)cc(OC3CCNCC3)nn12 [Compound 50, N-(3-fluorophenyl)-3-isopropyl-6-(piperidin-4-yloxy)imidazo[1,2-b]pyridazin-8-amine hydrochloride]"
15,< 100,"CC(C)c1cnc2c(NCc3c(F)cccc3F)cc(SC3CCNCC3)nn12 [Compound 52, N-(2,6-difluorobenzyl)-3-isopropyl-6-(piperidin-4-ylthio)imidazo[1,2-b]pyridazin-8-amine hydrochloride]"
16,< 100,"Fc1cccc(Nc2cc(O[C@H]3CCCNC3)nn3c(C(F)(F)F)cnc23)c1 [Compound 82, (S)-N-(3-fluorophenyl)-6-(piperidin-3-yloxy)-3-(trifluoromethyl)imidazo[1,2-b]pyridazin-8-amine hydrochloride]"
17,100 to 1000,"c1ccc(CNc2cc(NCC3CC4(CCNCC4)O3)nn3c(C4CC4)cnc23)cc1 (stereo not drawn) [Compound 17, N6-((1-oxa-7-azaspiro[3.5]nonan-2-yl)methyl)-N8-benzyl-3-cyclopropylimidazo[1,2-b]pyridazine-6,8-diamine]"

row,Compound,IC50 [nM]
1,"CN1CCC[C@@H](Oc2cc(Nc3cccc(F)c3)c3ncc(C4CC4)n3n2)C1 [Compound 4, (R)-3-cyclopropyl-N-(3-fluorophenyl)-6-((1-methylpiperidin-3-yl)oxy)imidazo[1,2-b]pyridazin-8-amine]",> 1000
